Experimental data from US8017600B2, “Imidazole compounds” (Janssen Pharmaceutica NV, priority 2004, dated 2011).

The compounds below were run against T1, human histamine H4 receptor (Homo sapiens, UniProt Q9H3N8) (assay: Binding assay on recombinant human histamine H4 receptor (3H-histamine displacement)). Settings: membranes of SK-N-MC or COS7 cells expressing human H4 receptor, Cheng-Prusoff.
T1 construct: expressed in transfected cells; host or cells: SK-N-MC cells or COS7 cells, transient transfection; cell membranes
Description: SK-N-MC cells or COS7 cells were transiently transfected with pH4R and grown in 150 cm^2 tissue culture dishes. Cells were washed with saline solution, scraped with a cell scraper and collected by centrifugation (1000 rpm, 5 min). Cell membranes were prepared by homogenization of the cell pellet in 20 mM Tris-HCl with a polytron tissue homogenizer for 10 sec at high speed. Homogenate was centrifuged at 1000 rpm for 5 min at 4° C. The supernatant was then collected and centrifuged at 20,000×g for 25 min at 4° C. The final pellet was resuspended in 50 mM Tris-HCl. Cell membranes were incubated with ^3H-histamine (5-70 nM) in the presence or absence of excess histamine (10,000 nM). Incubation occurred at room temperature for 45 min. Membranes were harvested by rapid filtration over Whatman GF/C filters and washed 4 times with ice-cold 50 mM Tris HCl. Filters were then dried, mixed with scintillant and counted for radioactivity. SK-N-MC or COS7 cells expressing human histamine H4 receptor were used to measure the affinity of binding of other compounds and their ability to displace ^3H-ligand binding by incubating the above-described reaction in the presence of various concentrations of inhibitor or compound to be tested.

| SMILES | Ki [µM] |
| --- | --- |
| CN1CCN(CCCOc2ccc(-c3nc(-c4ccccc4)c(-c4ccccc4)[nH]3)c(Cl)c2)CC1 [Example 2, 1-{3-[3-Chloro-4-(4,5-diphenyl-1H-imidazol-2-yl)-phenoxy]-propyl}-4-methyl-piperazine] | 0.039 |
| CN1CCN(CCCOc2ccc(-c3nc(-c4ccccc4Cl)c(-c4ccccc4Cl)[nH]3)c(Cl)c2)CC1 [Example 3, 1-(3-{4-[4,5-Bis-(2-chloro-phenyl)-1H-imidazol-2-yl]-3-chloro-phenoxy}-propyl)-4-methyl-piperazine] | 0.244 |
| COc1ccc(-c2nc(-c3ccc(OCCCN4CCN(C)CC4)cc3Cl)[nH]c2-c2ccc(OC)cc2)cc1 [Example 4, 1-(3-{4-[4,5-Bis-(4-methoxy-phenyl)-1H-imidazol-2-yl]-3-chloro-phenoxy}-propyl)-4-methyl-piperazine] | 0.044 |
| COc1cccc(-c2nc(-c3ccc(OCCCN4CCN(C)CC4)c(F)c3)[nH]c2-c2cccc(OC)c2)c1 [Example 8, 1-(3-{4-[4,5-Bis-(3-methoxy-phenyl)-1H-imidazol-2-yl]-2-fluoro-phenoxy}-propyl)-4-methyl-piperazine] | 0.06 |
| Cc1[nH]c(-c2ccc(OCCCN3CCCN(C)CC3)c(Cl)c2)nc1-c1ccccc1 [Example 11, 1-{3-[2-Chloro-4-(5-methyl-4-phenyl-1H-imidazol-2-yl)-phenoxy]-propyl}-4-methyl-[1,4]diazepane] | 0.07 |
| CN1CCCN(CCCOc2ccc(-c3nc4c([nH]3)CCCC4)cc2Cl)CC1 [Example 12, 2-{3-Chloro-4-[3-(4-methyl-[1,4]diazepan-1-yl)-propoxy]-phenyl}-4,5,6,7-tetrahydro-1H-benzoimidazole] | 0.065 |
| CN1CCC(CCCOc2ccc(-c3nc(-c4ccccc4)c(C(F)(F)F)[nH]3)c(Cl)c2)CC1 [Example 15, 4-{3-[3-Chloro-4-(4-phenyl-5-trifluoromethyl-1H-imidazol-2-yl)-phenoxy]-propyl}-1-methyl-piperidine] | 0.038 |
| Cc1[nH]c(-c2ccc(OCCCC3CCN(C)CC3)cc2Cl)nc1-c1cccc(C(F)(F)F)c1 [Example 16, 4-(3-{3-Chloro-4-[5-methyl-4-(3-trifluoromethyl-phenyl)-1H-imidazol-2-yl]-phenoxy}-propyl)-1-methyl-piperidine] | 0.165 |
| Cc1[nH]c(-c2ccc(OCCCC3CCN(C)CC3)cc2Cl)nc1-c1cc(Cl)cc(Cl)c1 [Example 17, 4-(3-{3-Chloro-4-[4-(3,5-dichloro-phenyl)-5-methyl-1H-imidazol-2-yl]-phenoxy}-propyl)-1-methyl-piperidine] | 0.052 |
| Cc1cc(OCCCC2CCN(C)CC2)ccc1-c1nc(-c2cc(Cl)cc(Cl)c2)c(C)[nH]1 [Example 18, 4-(3-{4-[4-(3,5-Dichloro-phenyl)-5-methyl-1H-imidazol-2-yl]-3-methyl-phenoxy}-propyl)-1-methyl-piperidine] | 0.045 |
| CN1CCC(CCCOc2ccc(-c3nc(-c4ccc(F)cc4)c(-c4ccc(F)cc4)[nH]3)c(Cl)c2)CC1 [Example 20, 4-(3-{4-[4,5-Bis-(4-fluoro-phenyl)-1H-imidazol-2-yl]-3-chloro-phenoxy}-propyl)-1-methyl-piperidine] | 0.039 |
| CN1CCC(CCCOc2ccc(-c3nc4c([nH]3)CCCC4)c(Cl)c2)CC1 [Example 23, 2-{2-Chloro-4-[3-(1-methyl-piperidin-4-yl)-propoxy]-phenyl}-4,5,6,7-tetrahydro-1H-benzoimidazole] | 0.155 |
| CCCc1[nH]c(-c2ccc(OCCCC3CCN(C)CC3)cc2Cl)nc1C [Example 24, 4-{3-[3-Chloro-4-(4-methyl-5-propyl-1H-imidazol-2-yl)-phenoxy]-propyl}-1-methyl-piperidine] | 0.069 |
| CCc1[nH]c(-c2ccc(OCCCC3CCN(C)CC3)cc2Cl)nc1C [Example 25, 4-{3-[3-Chloro-4-(5-ethyl-4-methyl-1H-imidazol-2-yl)-phenoxy]-propyl}-1-methylpiperidine] | 0.1 |
| Cc1cc(OCCOC2CCN(C)CC2)ccc1-c1nc(-c2cccc(C(F)(F)F)c2)c(C)[nH]1 [Example 26, 1-Methyl-4-(2-{3-methyl-4-[5-methyl-4-(3-trifluoromethyl-phenyl)-1H-imidazol-2-yl]-phenoxy}-ethoxy)-piperidine] | 0.3 |
| Cc1[nH]c(-c2ccc(OCCCC3CCN(C)CC3)nc2)nc1-c1cc(Cl)cc(Cl)c1 [Example 27, 5-[4-(3,5-Dichloro-phenyl)-5-methyl-1H-imidazol-2-yl]-2-[3-(1-methyl-piperidin-4-yl)-propoxy]-pyridine] | 0.29 |
| Cc1[nH]c(-c2ccc(OCCCC3CCN(C)CC3)nc2)nc1-c1ccc(Cl)cc1 [Example 28, 5-[4-(4-Chloro-phenyl)-5-methyl-1H-imidazol-2-yl]-2-[3-(1-methyl-piperidin-4-yl)-propoxy]-pyridine] | 0.072 |
| Cc1[nH]c(-c2ccc(OCCCC3CCN(C)CC3)nc2)nc1-c1cccc(C(F)(F)F)c1 [Example 29, 2-[3-(1-Methyl-piperidin-4-yl)-propoxy]-5-[5-methyl-4-(3-trifluoromethyl-phenyl)-1H-imidazol-2-yl]-pyridine] | 0.042 |
| Cc1[nH]c(-c2ccc(OCCCC3CCN(C)CC3)nc2)nc1-c1ccc(C(F)(F)F)cc1 [Example 30, 2-[3-(1-Methyl-piperidin-4-yl)-propoxy]-5-[5-methyl-4-(4-trifluoromethyl-phenyl)-1H-imidazol-2-yl]-pyridine] | 0.064 |
| CN1CCC(CCCOc2ccc(-c3nc(-c4ccccc4)c(C(F)(F)F)[nH]3)cn2)CC1 [Example 31, 2-[3-(1-Methyl-piperidin-4-yl)-propoxy]-5-(4-phenyl-5-trifluoromethyl-1H-imidazol-2-yl)-pyridine] | 0.186 |
| Cc1[nH]c(-c2ccc(OCCCN3CCN(C)CC3)nc2)nc1-c1ccc(C(F)(F)F)cc1 [Example 32, 1-Methyl-4-(3-{5-[5-methyl-4-(4-trifluoromethyl-phenyl)-1H-imidazol-2-yl]-pyridin-2-yloxy}-propyl)-piperazine] | 0.23 |
| Cc1[nH]c(-c2ccc(OCCCN3CCN(C)CC3)nc2)nc1-c1cccc(C(F)(F)F)c1 [Example 33, 1-Methyl-4-(3-{5-[5-methyl-4-(3-trifluoromethyl-phenyl)-1H-imidazol-2-yl]-pyridin-2-yloxy}-propyl)-piperazine] | 0.063 |

The remaining compounds from weak to strong by Ki, led by results:

| Ki [µM] | SMILES |
| --- | --- |
| 0.037 | COc1cccc(-c2nc(-c3ccc(OCCCC4CCN(C)CC4)cc3Cl)[nH]c2-c2cccc(OC)c2)c1 [Example 21, 4-(3-{4-[4,5-Bis-(3-methoxy-phenyl)-1H-imidazol-2-yl]-3-chloro-phenoxy}-propyl)-1-methyl-piperidine] |
| 0.032 | CN1CCCN(CCCOc2ccc(-c3nc4c([nH]3)CCCC4)c(Cl)c2)CC1 [Example 13, 2-{2-Chloro-4-[3-(4-methyl-[1,4]diazepan-1-yl)-propoxy]-phenyl}-4,5,6,7-tetrahydro-1H-benzoimidazole] |
| 0.032 | Cc1cc(OCCCC2CCN(C)CC2)ccc1-c1nc(-c2ccccc2)c(C(F)(F)F)[nH]1 [Example 14, 1-Methyl-4-{3-[3-methyl-4-(4-phenyl-5-trifluoromethyl-1H-imidazol-2-yl)-phenoxy]-propyl}-piperidine] |
| 0.029 | CN1CCN(CCCOc2ccc(-c3nc(-c4ccc(F)cc4)c(-c4ccc(F)cc4)[nH]3)c(Cl)c2)CC1 [Example 6, 1-(3-{4-[4,5-Bis-(4-fluoro-phenyl)-1H-imidazol-2-yl]-3-chloro-phenoxy}-propyl)-4-methyl-piperazine] |
| 0.029 | Cc1ccc(-c2[nH]c(-c3ccc(OCCCC4CCN(C)CC4)cc3Cl)nc2-c2ccc(Cl)cc2)cc1 [Example 22, 4-(3-{3-Chloro-4-[4-(4-chloro-phenyl)-5-p-tolyl-1H-imidazol-2-yl]-phenoxy}-propyl)-1-methyl-piperidine] |
| 0.024 | Cc1ccc(-c2nc(-c3ccc(OCCCN4CCN(C)CC4)cc3Cl)[nH]c2-c2ccc(C)cc2)cc1 [Example 5, 1-{3-[3-Chloro-4-(4,5-di-p-tolyl-1H-imidazol-2-yl)-phenoxy]-propyl}-4-methyl-piperazine] |
| 0.022 | Cc1[nH]c(-c2ccc(OCCCC3CCN(C)CC3)cc2Cl)nc1-c1ccc(Cl)cc1 [Example 19, 4-(3-{3-Chloro-4-[4-(4-chloro-phenyl)-5-methyl-1H-imidazol-2-yl]-phenoxy}-propyl)-1-methyl-piperidine] |
| 0.021 | COc1cccc(-c2nc(-c3ccc(OCCCN4CCN(C)CC4)cc3Cl)[nH]c2-c2cccc(OC)c2)c1 [Example 7, 1-(3-{4-[4,5-Bis-(3-methoxy-phenyl)-1H-imidazol-2-yl]-3-chloro-phenoxy}-propyl)-4-methyl-piperazine] |
| 0.014 | CN1CCN(CCCOc2ccc(-c3nc(-c4ccc(Br)cc4)c(-c4ccc(Br)cc4)[nH]3)c(Cl)c2)CC1 [Example 1, 1-(3-{4-[4,5-Bis-(4-bromo-phenyl)-1H-imidazol-2-yl]-3-chloro-phenoxy}-propyl)-4-methyl-piperazine] |
| 0.011 | CN1CCCN(CCCOc2ccc(-c3nc(-c4ccc(Br)cc4)c(-c4ccc(Br)cc4)[nH]3)c(Cl)c2)CC1 [Example 9, 1-(3-{4-[4,5-Bis-(4-bromo-phenyl)-1H-imidazol-2-yl]-3-chloro-phenoxy}-propyl)-4-methyl-[1,4]diazepane] |
| 0.006 | COc1cccc(-c2nc(-c3ccc(OCCCN4CCCN(C)CC4)cc3Cl)[nH]c2-c2cccc(OC)c2)c1 [Example 10, 1-(3-{4-[4,5-Bis-(3-methoxy-phenyl)-1H-imidazol-2-yl]-3-chloro-phenoxy}-propyl)-4-methyl-[1,4]diazepane] |
